As usually defined, the IC50 is the midpoint of a concentration-inhibition curve. A low value points to higher potency.

Each structure is given as a SMILES string.

This test addresses T1, ROMK (Kir1.1) channel (Homo sapiens, UniProt P48048).
T1 sequence (P48048 1-391): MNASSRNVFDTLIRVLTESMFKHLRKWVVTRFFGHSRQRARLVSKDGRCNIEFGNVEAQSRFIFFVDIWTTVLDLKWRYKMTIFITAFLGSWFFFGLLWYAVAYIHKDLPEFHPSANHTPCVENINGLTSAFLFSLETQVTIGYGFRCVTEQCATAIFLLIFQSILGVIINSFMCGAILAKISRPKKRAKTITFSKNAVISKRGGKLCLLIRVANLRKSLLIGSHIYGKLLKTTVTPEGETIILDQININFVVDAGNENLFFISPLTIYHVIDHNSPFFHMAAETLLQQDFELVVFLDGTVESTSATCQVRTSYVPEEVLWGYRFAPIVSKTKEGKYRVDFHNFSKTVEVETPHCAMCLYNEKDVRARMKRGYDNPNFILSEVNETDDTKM
Nature of the test: Thallium Flux Assay. Type of test: cell-based. As to the method:
A Thallium Flux Assay was performed on each of the final product compounds in the Examples. When the final product of an Example was an HCl salt, the salt was run in the Assay. This assay has been described previously; see, e.g., PCT Published Application WO 2013/062900.
`Cc1nc(-n2cnnn2)ccc1[C@@H](O)CN1CCC2(CC1)CCN(C1=CC(=O)OC1)C(=O)C2` [Example 26, (R)-9-(2-hydroxy-2-(2-methyl-6-(1H-tetrazol-1-yl)pyridin-3-yl)ethyl)-3-(5-oxo-2,5-dihydrofuran-3-yl)-3,9-diazaspiro[5.5]undecan-2-one] came in with an IC50 of 48 nM. Regarding `Cc1c([C@@H](O)CN2CCC3(CC2)CCN(C2=CC(=O)OC2)C(=O)C3)ccc2c1COC2=O` [Example 27, (R)-9-(2-hydroxy-2-(4-methyl-1-oxo-1,3-dihydroisobenzofuran-5-yl)ethyl)-3-(5-oxo-2,5-dihydrofuran-3-yl)-3,9-diazaspiro[5.5]undecan-2-one], half-maximal inhibition (IC50) required 433 nM. Molecule `CC1=C(N2CCC3(CCN(C[C@H](O)c4ccc5c(c4C)COC5=O)CC3)CC2=O)COC1=O` [Example 28, (R)-9-(2-hydroxy-2-(4-methyl-1-oxo-1,3-dihydroisobenzofuran-5-yl)ethyl)-3-(4-methyl-5-oxo-2,5-dihydrofuran-3-yl)-3,9-diazaspiro[5.5]undecan-2-one] had an IC50 of 552 nM. `CC1=C(N2CCC3(CCN(C[C@H](O)c4ccc(-n5cnnn5)nc4C)CC3)CC2=O)COC1=O` [Example 29, (R)-9-(2-hydroxy-2-(2-methyl-6-(1H-tetrazol-1-yl)pyridin-3-yl)ethyl)-3-(4-methyl-5-oxo-2,5-dihydrofuran-3-yl)-3,9-diazaspiro[5.5]undecan-2-one] gave an IC50 of 330 nM. In the case of `O=C1C=C(N2CCC3(CCN(C[C@H](O)c4ccc(-n5cnnn5)nc4)CC3)OC2=O)CO1` [Example 30, (R)-9-(2-(6-(1H-tetrazol-1-yl)pyridin-3-yl)-2-hydroxyethyl)-3-(5-oxo-2,5-dihydrofuran-3-yl)-1-oxa-3,9-diazaspiro[5.5]undecan-2-one], half-maximal inhibition (IC50) was put at 171 nM.

Molecule `Cc1nc(-n2cnnn2)ccc1[C@@H](O)CN1CCC2(CC1)CCN(C1=CC(=O)OC1)C(=O)O2` [Example 31, (R)-9-(2-hydroxy-2-(2-methyl-6-(1H-tetrazol-1-yl)pyridin-3-yl)ethyl)-3-(5-oxo-2,5-dihydrofuran-3-yl)-1-oxa-3,9-diazaspiro[5.5]undecan-2-one] came in with an IC50 of 65 nM. Under `CC1=C(N2CCC3(CCN(C[C@H](O)c4ccc5c(c4C)COC5=O)CC3)[C@@H](F)C2)COC1=O` [Example 34, 5-((R)-2-((R)-7-fluoro-9-(4-methyl-5-oxo-2,5-dihydrofuran-3-yl)-3,9-diazaspiro[5.5]undecan-3-yl)-1-hydroxyethyl)-4-methylisobenzofuran-1(3H)-one] stands 275 nM.

`CC1=C(N2CCC3(CCN(C[C@H](O)c4ccc5c(c4C)COC5=O)CC3)[C@H](F)C2)COC1=O` [Example 35, 5-((R)-2-((S)-7-fluoro-9-(4-methyl-5-oxo-2,5-dihydrofuran-3-yl)-3,9-diazaspiro[5.5]undecan-3-yl)-1-hydroxyethyl)-4-methylisobenzofuran-1(3H)-one] registered an IC50 of 236 nM.

In turn, `CC1=C(N2CCC3(CCN(CC(O)c4ccc(Br)cc4)CC3)CC2)COC1=O` (stereo not drawn) [Example 36, 4-(9-(2-(4-bromophenyl)-2-hydroxyethyl)-3,9-diazaspiro[5.5]undecan-3-yl)-3-methylfuran-2(5H)-one] had an IC50 of 115 nM. Under `Cc1c([C@@H](O)CN2CCC3(CC2)CCN(C2=CC(=O)OC2C)CC3)ccc2c1COC2=O` (stereo partly drawn) [Example 37, 5-((1R)-1-hydroxy-2-(9-(2-methyl-5-oxo-2,5-dihydrofuran-3-yl)-3,9-diazaspiro[5.5]undecan-3-yl)ethyl)-4-methylisobenzofuran-1(3H)-one] stands 140 nM. Then `Cc1c([C@@H](O)CN2CCC3(CC2)CCN(C2=C(F)C(=O)OC2)CC3)ccc2c1COC2=O` [Example 38, (R)-5-(2-(9-(4-fluoro-5-oxo-2,5-dihydrofuran-3-yl)-3,9-diazaspiro[5.5]undecan-3-yl)-1-hydroxyethyl)-4-methylisobenzofuran-1(3H)-one], with 7 nM; and `Cc1nc(-n2cnnn2)ccc1[C@@H](O)CN1CCC2(CC1)CCN(C1=C(F)C(=O)OC1)CC2` [Example 39, (R)-3-fluoro-4-(9-(2-hydroxy-2-(2-methyl-6-(1H-tetrazol-1-yl)pyridin-3-yl)ethyl)-3,9-diazaspiro[5.5]undecan-3-yl)furan-2(5H)-one], with 11 nM; and `Cc1c([C@@H](O)CN2CCC3(CC2)CCN(C2=C(Cl)C(=O)OC2)CC3)ccc2c1COC2=O` [Example 40, (R)-5-(2-(9-(4-chloro-5-oxo-2,5-dihydrofuran-3-yl)-3,9-diazaspiro[5.5]undecan-3-yl)-1-hydroxyethyl)-4-methylisobenzofuran-1(3H)-one], with 5 nM. Consider `Cc1c([C@@H](O)CN2CCC3(CC2)CCN(C2=C(c4ccccc4)C(=O)OC2)CC3)ccc2c1COC2=O` [Example 41, (R)-5-(1-hydroxy-2-(9-(5-oxo-4-phenyl-2,5-dihydrofuran-3-yl)-3,9-diazaspiro[5.5]undecan-3-yl)ethyl)-4-methylisobenzofuran-1(3H)-one], for which the IC50 was determined as 168 nM. As to `Cc1c([C@@H](O)CN2CCC3(CC2)CCN(C2=C(c4ccncc4)C(=O)OC2)CC3)ccc2c1COC2=O` [Example 42, (R)-5-(1-hydroxy-2-(9-(5-oxo-4-(pyridin-4-yl)-2,5-dihydrofuran-3-yl)-3,9-diazaspiro[5.5]undecan-3-yl)ethyl)-4-methylisobenzofuran-1(3H)-one], half-maximal inhibition (IC50) was put at 352 nM. For the molecule `Cc1c([C@@H](O)CN2CCC3(CC2)CCN(C2=C(C4CC4)C(=O)OC2)CC3)ccc2c1COC2=O` [Example 44, (R)-5-(2-(9-(4-cyclopropyl-5-oxo-2,5-dihydrofuran-3-yl)-3,9-diazaspiro[5.5]undecan-3-yl)-1-hydroxyethyl)-4-methylisobenzofuran-1(3H)-one], 17 nM corresponded to half-maximal inhibition (IC50). Turning to `CC1=C(N2CCC3(CCN(C[C@H](O)c4ccc(-n5cnnn5)nc4C)CC3)CC2)COC1=O` [Example 45, (R)-4-(9-(2-hydroxy-2-(2-methyl-6-(1H-tetrazol-1-yl)pyridin-3-yl)ethyl)-3,9-diazaspiro[5.5]undecan-3-yl)-3-methylfuran-2(5H)-one], 16 nM corresponded to half-maximal inhibition (IC50). Then `CC1=C(N2CCC3(CCN(C[C@@H](O)c4ccc(-n5cnnn5)nc4C)CC3)CC2)COC1=O` [Example 46, (S)-4-(9-(2-hydroxy-2-(2-methyl-6-(1H-tetrazol-1-yl)pyridin-3-yl)ethyl)-3,9-diazaspiro[5.5]undecan-3-yl)-3-methylfuran-2(5H)-one], with 38 nM.

In turn, `CC1=C(N2CCC3(CCN(C[C@H](O)c4ccc(-n5cnnn5)nc4)CC3)CC2)COC1=O` [Example 47, (R)-4-(9-(2-(6-(1H-tetrazol-1-yl)pyridin-3-yl)-2-hydroxyethyl)-3,9-diazaspiro[5.5]undecan-3-yl)-3-methylfuran-2(5H)-one] came in with an IC50 of 13 nM.

In turn, `CC1=C(N2CCC3(CCN(C[C@@H](O)c4ccc(-n5cnnn5)nc4)CC3)CC2)COC1=O` [Example 48, (S)-4-(9-(2-(6-(1H-tetrazol-1-yl)pyridin-3-yl)-2-hydroxyethyl)-3,9-diazaspiro[5.5]undecan-3-yl)-3-methylfuran-2(5H)-one] showed an IC50 of 19 nM. Then `CC1=C(N2CCC3(CCN(C[C@H](O)c4ccc(-n5cnnn5)cc4)CC3)CC2)COC1=O` [Example 49, (R)-4-(9-(2-(4-(1H-tetrazol-1-yl)phenyl)-2-hydroxyethyl)-3,9-diazaspiro[5.5]undecan-3-yl)-3-methylfuran-2(5H)-one], with 16 nM. `CC1=C(N2CCC3(CCN(C[C@@H](O)c4ccc(-n5cnnn5)cc4)CC3)CC2)COC1=O` [Example 50, (S)-4-(9-(2-(4-(1H-tetrazol-1-yl)phenyl)-2-hydroxyethyl)-3,9-diazaspiro[5.5]undecan-3-yl)-3-methylfuran-2(5H)-one] yielded an IC50 of 16 nM. `CC1=C(N2CCC3(CCN(C[C@H](O)c4ccc(-n5cnnn5)cn4)CC3)CC2)COC1=O` [Example 51, (S)-4-(9-(2-(5-(1H-tetrazol-1-yl)pyridin-2-yl)-2-hydroxyethyl)-3,9-diazaspiro[5.5]undecan-3-yl)-3-methylfuran-2(5H)-one] gave an IC50 of 70 nM. In the case of `CC1=C(N2CCC3(CCN(C[C@@H](O)c4ccc(-n5cnnn5)cn4)CC3)CC2)COC1=O` [Example 52, (R)-4-(9-(2-(5-(1H-tetrazol-1-yl)pyridin-2-yl)-2-hydroxyethyl)-3,9-diazaspiro[5.5]undecan-3-yl)-3-methylfuran-2(5H)-one], the IC50 was determined as 37 nM. `CC1=C(N2CCC3(CCN(C[C@H](O)c4ccc(-n5cnnn5)cc4F)CC3)CC2)COC1=O` [Example 53, (R)-4-(9-(2-(2-fluoro-4-(1H-tetrazol-1-yl)phenyl)-2-hydroxyethyl)-3,9-diazaspiro[5.5]undecan-3-yl)-3-methylfuran-2(5H)-one] gave an IC50 of 14 nM.

Molecule `CC1=C(N2CCC3(CCN(C[C@@H](O)c4ccc(-n5cnnn5)cc4F)CC3)CC2)COC1=O` [Example 54, (S)-4-(9-(2-(2-fluoro-4-(1H-tetrazol-1-yl)phenyl)-2-hydroxyethyl)-3,9-diazaspiro[5.5]undecan-3-yl)-3-methylfuran-2(5H)-one] displayed an IC50 of 8 nM. Molecule `CC1=C(N2CCC3(CCN(C[C@H](O)c4ccc(-n5cnnn5)cc4C)CC3)CC2)COC1=O` [Example 55, (R)-4-(9-(2-hydroxy-2-(2-methyl-4-(1H-tetrazol-1-yl)phenyl)ethyl)-3,9-diazaspiro[5.5]undecan-3-yl)-3-methylfuran-2(5H)-one] returned an IC50 of 11 nM.

Source of the values: patent US9839629B2, “Inhibitors of the renal outer medullary potassium channel” (Merck Sharp & Dohme Corp., priority 2013, dated 2017).
